Measured values reported in patent US8252832B2, “Kinesin inhibitors as cancer therapeutics” (Novartis AG, priority 2007, dated 2012).
Like-named read-outs stand apart in the source and are kept apart here.

Key:
Format in all cases: cell-based
[1] = system: K562; test: CellTiter-Glo, hematologic malignancy panel; conditions: CML; for GI50: Homo sapiens
From the text: (§1) Identification of tumor types that are the most sensitive to the KSP inhibitors of the present invention can be accomplished using an unbiased approach that uses several cell-based assays. The assays chosen were as follows: • CellTiter-Glo®. This is an assay designed to measure ATP concentration in a cell culture, and can be correlated to cell number. Briefly CellTiter-Glo® (Promega Corporation) is a homogeneous method using the single CellTiter-Glo® reagent to detect ATP wherein ATP in the assay drives the activity of a thermostable luciferase to create a luminescent signal which can then be measured and correlated with the number of viable cells. Briefly, for adherent cells, 1,000 to 5,000 cells/well were plated in 96-well plates (100 μl/well) and let to adhere for 24 hours before being treated with drug. For non-adherent cells, 1,000 to 10,000 cells/well were plated in 96-well plates (100 μl/well) and immediately treated with drug. Drug dilutions were prepared in DMSO at 1000 times the final concentration. These dilutions were then diluted 1/100 in growth media before being added to the cells (11 μl/well) to achieve the desired final concentration. After 48 h in a 37° C. tissue culture incubator, the plates were processed for the CellTiter-Glo®assay according to the manufacturer's instructions. Protocol for a 72 hour cell proliferation assay: The 72 hour assay was performed the same way as the 48 hour assay except for the following modifications: For adherent cells, 500 to 5,000 cells/well were plated in 96-well plates (90 μl/well cell growth media) and left to adhere for 24 hours before being treated with drug. For non-adherent cells, 1,000 to 10,000 cells/well were plated in 96-well plates (90 μl/well cell growth media) and immediately treated with drug. Data values presented represent the concentration of test compound required for a 50% reduction in growth. • LDH release. The Cytotoxicity Detection KitPLUS (LDH) assay (Roche Diagnostics, Manheim, Germany) measures the amount of LDH released in the media by dying cells; LDH catalyzes the conversion of lactate into pyruvate. The enzymatic reaction is coupled to a chemical reaction that uses a tetrazolium salt to form a formazan that is red and can be detected by its absorbance at 490 nm. This assay measures the amount of cell death after drug treatment. Cells were plated at 10,000 cells/well in 96-well plates (100 μl/well). Adherent cells were let to adhere for 24 hours before being treated with drug, whereas non-adherent cells were immediately treated with drug. Drug dilutions were prepared in DMSO at 1000 times the final concentration. These dilutions were then diluted 1/100 in growth media before being added to the cells (11 μl/well) to achieve the desired final concentration. After 48 h in a 37° C. tissue culture incubator, the plates were processed for the Cytotoxicity Detection KitPLUS (LDH) assay according to the manufacturer's instructions. The media only values were subtracted from all the data points before analysis. Data values presented correspond to the compound concentration wherein LDH output is at half maximal level. • Caspase-Glo® 3/7. The Caspase-Glo® 3/7 Assay (Promega Corporation) is a homogeneous luminescent assay that measures caspase-3/7 activities. The assay provides a proluminescent caspase-3/7 DEVD-aminoluciferin substrate and a thermostable luciferase in a reagent optimized for caspase-3/7 activity, luciferase activity and cell lysis. Adding the single Caspase-Glo® 3/7 Reagent results in cell lysis, followed by caspase cleavage of the substrate. This liberates free aminoluciferin, which is consumed by the luciferase, generating a luminescent signal. The signal is proportional to caspase-3/7 activity. Data values presented correspond to the compound concentration wherein caspase 3/7 activity is at half maximal level. […]

[2] = system: HL60; test: CellTiter-Glo, hematologic malignancy panel; conditions: for GI50: Homo sapiens, HL-60, AML
From the text: as §1

[3] = system: SUDHL-4; test: CellTiter-Glo, hematologic malignancy panel; conditions: for GI50: Homo sapiens, SU-DHL-4, NHL
From the text: as §1

[4] = system: HEL92; test: CellTiter-Glo, hematologic malignancy panel; conditions: AML
From the text: as §1

[5] = system: RS4; 11; test: CellTiter-Glo, hematologic malignancy panel; conditions: ALL; for GI50: Homo sapiens
From the text: as §1

[6] = system: KM-H2; test: CellTiter-Glo, hematologic malignancy panel; conditions: HL; for GI50: Homo sapiens
From the text: as §1

[7] = system: OPM2; test: CellTiter-Glo, hematologic malignancy panel; conditions: for GI50: Homo sapiens, OPM-2, MM
From the text: as §1

[8] = system: MOLM13-Luc; test: CellTiter-Glo, hematologic malignancy panel; conditions: AML
From the text: as §1

[9] = system: SUDHL-4; test: Cell cycle profile by FACS (propidium iodide DNA content); conditions: SUDHL-4, 48 hr treatment
Method: Lymphoma cell line cells were treated with the KSP inhibitors of the invention and analyzed by FACs analysis. Approximately 2×10^5 cells were harvested, cell pellets were washed with cold PBS twice and re-suspended in 500 μL cold PBS. Cells were fixed by adding 8 mL cold 80% ethanol while vortexing slowly. After 15 minutes of incubation fixed cells were washed twice with PBS and cell pellets were re-suspended in 1 mL of PI/RNASE staining buffer (BD Pharmingen™ catalog #550825) and incubated for 15 minutes at 37° C. protected from light. Propidium iodide (PI) is a fluorescent vital dye that stains both DNA and RNA. Therefore the RNA must be removed by digestion with ribonuclease (RNase). Stained cells were passed through a cell strainer into a FACS tube to reduce the number of cell aggregates (BD Falcon #352235) prior to FACS analysis. The DNA content of the fixed and stained cells was analyzed by the BD FACSCalibur flow cytometer using the CellQuest software.
Following mitotic arrest, cells have several options including coming out of arrest and dividing normally, undergoing apoptosis directly, or exiting mitosis without cytokinesis (a phenomenon called mitotic slippage). If cells undergo mitotic slippage, they can enter a pseudo-G1 and then either continue to cycle, senesce, or undergo apoptosis. […]

[10] = system: cell lines derived from hematological malignancies; test: CellTiter-Glo, hematologic malignancy panel, mean of panel
From the text: Identification of tumor types that are the most sensitive to the KSP inhibitors of the present invention can be accomplished using an unbiased approach that uses several cell-based assays. The assays chosen were as follows: • CellTiter-Glo®. This is an assay designed to measure ATP concentration in a cell culture, and can be correlated to cell number. Briefly CellTiter-Glo® (Promega Corporation) is a homogeneous method using the single CellTiter-Glo® reagent to detect ATP wherein ATP in the assay drives the activity of a thermostable luciferase to create a luminescent signal which can then be measured and correlated with the number of viable cells. Briefly, for adherent cells, 1,000 to 5,000 cells/well were plated in 96-well plates (100 μl/well) and let to adhere for 24 hours before being treated with drug. For non-adherent cells, 1,000 to 10,000 cells/well were plated in 96-well plates (100 μl/well) and immediately treated with drug. Drug dilutions were prepared in DMSO at 1000 times the final concentration. These dilutions were then diluted 1/100 in growth media before being added to the cells (11 μl/well) to achieve the desired final concentration. […] The enzymatic reaction is coupled to a chemical reaction that uses a tetrazolium salt to form a formazan that is red and can be detected by its absorbance at 490 nm. […]

[11] = GI50 in nM, read-out: Log(GI50) (converted)

For `CC(C)(C)[C@H](c1nc(-c2cc(F)ccc2F)cn1Cc1ccccc1)N(CC[C@H](N)CF)C(=O)CO` [Compound IIa], the “Differential vs mean Log(GI50)” value [1] was 0.210, the GI50 [1, 11] was 0.209 nM and the GI50 ([1]; read-out: GI50) was 0.21 nM. For the same compound, the “Differential vs mean Log(GI50)” value ([2]; AML) was 0.313, the GI50 [2, 11] was 0.165 nM and the GI50 ([2]; read-out: GI50) was 0.17 nM. The GI50 [3, 11] was 0.447 nM, the GI50 ([3]; read-out: GI50) was 0.45 nM and the “Differential vs mean Log(GI50)” value ([3]; NHL) was −0.120. The “Differential vs mean Log(GI50)” value [4] was −0.160, the GI50 [4, 11] was 0.49 nM and the GI50 ([4]; read-out: GI50) was 0.49 nM. The “Differential vs mean Log(GI50)” value [5] was 0.530, the GI50 [5, 11] was 0.1 nM and the GI50 ([5]; read-out: GI50) was 0.1 nM. For the same compound, the “Differential vs mean Log(GI50)” value [6] was 0.162, the GI50 [6, 11] was 0.233 nM and the GI50 ([6]; read-out: GI50) was 0.23 nM. For the same compound, the GI50 [7, 11] was 0.135 nM, the GI50 ([7]; read-out: GI50) was 0.14 nM and the “Differential vs mean Log(GI50)” value ([7]; MM) was 0.400. The “Differential vs mean Log(GI50)” value [8] was 0.175, the GI50 [8, 11] was 0.226 nM and the GI50 ([8]; read-out: GI50) was 0.23 nM. For the same compound, the “cell cycle profile (DNA content, FACS)” value [9] was “underwent apoptosis after 48 hr treatment”, the GI50 ([10]; GI50 in nM, read-out: Log(GI50), arithmetic mean of panel (converted)) was 0.339 nM and the GI50 ([10]; read-out: GI50, geometric mean of panel) was 0.34 nM.
